Tests used:
[1] = Caco-2 Permeability Assay; format: in vitro ADME; conditions: human, apparent permeability A to B, compound at 10 μM, apical buffer pH 6.0, basolateral buffer pH 7.4, read-out: Papp (cm/sec, *10^−6)
Source text: Caco-2 Permeability Assay Caco-2 cells are purchased from Cell Culture Services as frozen instant cells at a concentration of 1*10^7 cells/vial. DMEM+glutamax-I culture media is purchased from Gibco (10569). Fetal bovine serum (FBS) is purchased from HyClone (SH30396.03). Pennicilin/Streptomycin antibiotics are purchased from Gibco (15140). MEM non-essential amino acids are purchased from Gibco (11140). Hank's balanced salt solution (HBSS) is purchased from Gibco (14025). Bovine serum albumin (BSA) is purchased from Sigma-Aldrich (A7906). MES low moisture is purchased from Sigma-Aldrich (M3671). HEPES is purchased from Sigma-Aldrich (H3375). Dimethyl Sulfoxide (DMSO) is purchased from EMD (MX1457-6). Complete DMEM media is prepared by adding 1 L of FBS, 100 mL of pen/strep and 110 mL of MEM non essential amino acids to 10 L of DMEM+glutamax-I. […] Caco-2 cells are seeded on HTS transwell 24-well plates purchased from Corning (3397). These polycarbonate membrane plates have a diameter of […] and pore size of 0.4 μm. The Caco-2 cells vial is thawed in a 37° C. water bath until only a small ice pellet is left. The vial is then transferred to the laminar flow hood and its exterior is extensively washed with 70% ethanol. The total content of the vial (2 mL) is transferred into a 50 mL tube containing 38 mL of complete DMEM. […] The seeding is done by the Hamilton star robotic station which is controlled with the Venus program. Each well will receive 600 μL of complete DMEM on its basolateral side and 200 μL of cells on its apical side. Each well receives 50 000 cells. The 24-well plates are then returned to an automated Liconic STX110 incubator set at 37° C., 5% CO2 and 100% humidity. The culture media for the cells is changed every two days except on weekends. These cells are maintained for a period of two weeks prior to the running of the permeability assay. Permeability assays are usually performed between day 15 and 18 after the initial seeding. […] Controls for the assay are mannitol for tight junction determination and Digoxin for efflux transporter (p-glycoprotein) expression. On the day of the assay, each compound is diluted to 10 μM in the buffer (apical for A to B). 6 μl of the 5 mM DMSO stock is added to 3 mL of the buffer in a 24-well 10 mL deep plate covered with a lid. The plate containing all the diluted compounds is spun for 10 min at 3000 rpm in a Rotanta 46 RSC centrifuge from Hettich to remove unsoluble compound. This dilution is used to add at the start of the incubation. Each compound is tested in duplicate. On the day of the assay, the culture media of the 24-well plate is removed and replaced with warm HBSS. The HBSS is then also removed and the Apical and Basolatral buffer are added to their respective side of the transwells. These steps are performed by the Hamilton Star robotic station. The plate is then placed in a 37° C. incubator and is left to equilibrate for 30 min. After 30 min of incubation a background sample (25 μL from each well) is taken from the receiver side (Basolateral for A to B), and replenished with warm buffer. These samples and all others afterwards are kept in a 96-well 1 mL plate. To start the assay, the donor compartment (apical for A to B) is emptied and replaced with new buffer containing the compound at 10 μM. Once the compounds are added, the plate is returned to the 37° C. incubator and the timer is started. In order to determine how much compound is actually added to each well, a 50 μL sample is taken from each compound dilution, this sample is refered to as the load. These steps and the following are performed by the Tecan Freedom EVO robotic station controlled via the Gemini software. For A-to-B Assay: Samples (190 μL) are taken from each basolateral (receiver) chamber at time points 0, 60, 120 and 180 min or at time points 0, 30, 60 and 90 min. From the 190 μL taken, 50 μL is transferred to the receiving plate and 140 μL is discarded.

HIV-1 = test: C8166 HIV-1 Luciferase Assay (EC50); format: cell-based; conditions: Human immunodeficiency virus 1, C8166, 72 h
Protocol: C8166 HIV-1 Luciferase Assay (Ec50)
The assay used to measure inhibition of HIV replication is as described in WO 2004/050643, pages 73-75, incorporated herein by reference, with the following modifications:
Serial dilutions of HIV-1 inhibitors are prepared in complete media from DMSO stock solutions. Eleven serial dilutions of desired concentration are prepared in a 1 mL deep well titer plate (96 wells). The 12th well contains complete media with no inhibitor and serves as the positive control. All samples contain the same concentration of DMSO (<0.1% DMSO). Inhibitor is added, to triplicate wells, of a 96 well tissue culture treated clear view black microtiter plate (Corning Costar catalogue #3904). The total volume per well is 200 μL of media containing the cells and inhibitor. The last row is reserved for uninfected C8166 LTRIuc cells to serve as the background blank control and the first row is media alone.
Count C8166 LTRIuc cells and place in a minimal volume of complete RPMI 1640 in a tissue culture flask (ex. 30×10^6 cells in 10 mL media/25 cm^2 flask). Infect cells with HIV-1 at a moi of 0.005. Incubate cells for 1.5 h at 37° C. on a rotating rack in a 5% CO2 incubator. Resuspend cells in complete RPMI to give a final concentration of 25,000-cells/well. Add cells to wells of 96 well microtiter plate containing inhibitors. Add 25,000 uninfected C8166-LTRIuc cells/well in 200 μL complete RPMI to last row for background control. Incubate cells at 37° C. in 5% CO2 incubator for 3 days.
50 μL Steady Glo (luciferase substrate T112=5 hours Promega catalogue # E2520) is added to each well of the 96 well plate. The relative light units (RLU) of luciferase are determined using a luminescence plate reader. The calculated % inhibition values are used to determine EC50, slope factor (n) and maximum inhibition (Imax).

CN(C)c1ccc(-c2nc(=O)n(CCC3CCCO3)c3c2oc2cc(F)c(-c4cnn(C)c4)cc23)cn1 (centres unmarked) [Compound 1034]
Papp A→B at 10 μM [1]: 6.8 ×10⁻⁶ cm/s | EC50 (HIV-1): 23 nM

CNc1ccc(-c2nc(=O)n(CCC3CCCO3)c3c2oc2ccc(-c4cnco4)cc23)cn1 (centres unmarked) [Compound 1027]
Papp A→B at 10 μM [1]: 12.4 ×10⁻⁶ cm/s | EC50 (HIV-1): 54 nM

CC[C@H]1C[C@@H](n2c(=O)nc(-c3cnn(C)c3)c3oc4ccc(-c5cn(C)cn5)cc4c32)CCO1 [Compound 1091]
Papp A→B at 10 μM [1]: 7.9 ×10⁻⁶ cm/s | EC50 (HIV-1): 15.4 nM

CC[C@H]1C[C@@H](n2c(=O)nc(-c3cnn(C)c3)c3oc4cc(Cl)c(-c5cnn(C)c5)nc4c32)CCO1 [Compound 1022]
Papp A→B at 10 μM [1]: 17.2 ×10⁻⁶ cm/s | EC50 (HIV-1): 3.2 nM

CNc1ccc(-c2nc(=O)n(CCC3CCCO3)c3c2oc2cc(F)c(-c4cnn(C)c4)cc23)cn1 (centres unmarked) [Compound 1032]
Papp A→B at 10 μM [1]: 7.7 ×10⁻⁶ cm/s | EC50 (HIV-1): 11.9 nM

CC[C@H]1C[C@@H](n2c(=O)nc(-c3cnn(C)c3)c3oc4ncc(-c5cnn(C)c5)cc4c32)CCO1 [Compound 1061]
Papp A→B at 10 μM [1]: 9.3 ×10⁻⁶ cm/s | EC50 (HIV-1): 20.3 nM

CC[C@H]1C[C@@H](n2c(=O)nc(-c3cnn(C)c3)c3oc4ccc(-n5cncn5)nc4c32)CCO1 [Compound 1013]
Papp A→B at 10 μM [1]: 16.8 ×10⁻⁶ cm/s | EC50 (HIV-1): 98 nM

CC[C@H]1C[C@@H](n2c(=O)nc(-c3ccc(NC)nc3)c3oc4cnc(-c5cnn(C)c5)cc4c32)CCO1 [Compound 1077]
Papp A→B at 10 μM [1]: 14.7 ×10⁻⁶ cm/s | EC50 (HIV-1): 6 nM

CCn1cc(-c2cnc3oc4c(-c5ccc(NC)nc5)nc(=O)n(CCC5CCCCO5)c4c3c2)cn1 (centres unmarked) [Compound 1067]
Papp A→B at 10 μM [1]: 5.3 ×10⁻⁶ cm/s | EC50 (HIV-1): 40 nM

Cn1cc(-c2cc(F)c3oc4c(-c5ccc(N6CCOCC6)nc5)nc(=O)n(CCC5CCCO5)c4c3c2)cn1 (centres unmarked) [Compound 1031]
Papp A→B at 10 μM [1]: 6.4 ×10⁻⁶ cm/s | EC50 (HIV-1): 14 nM

— patent publication US9399645B2, “Inhibitors of HIV replication” (Boehringer Ingelheim International GmbH, priority 2011, dated 2016)
